According to patent US20080020973A1 (priority 2004, published 2008):
Read-outs that look alike come from different tables or passages of the source.

How the values were obtained:
[1] = target: T1, vaccinia DNA topoisomerase IB (vTopo) (Vaccinia virus, UniProt P68698); assay: biochemical; conditions: for remaining activity at 100 µM: 0.5 h, read-out: % vTopo activity
[2] = target: human topoisomerase type IB (hTopo) (Homo sapiens, UniProt P11387); assay: biochemical; format: biochemical
[3] = target: T1, vaccinia DNA topoisomerase IB (vTopo); assay: biochemical
[4] = target: T2, Y274F vTopo (Vaccinia virus, UniProt P68698, Y274F); format: binding
T2 construct: made in house

[5] = target: T3, vTopo (Vaccinia virus, UniProt P68698); format: biochemical; conditions: equilibrium cleavage
T3 construct: made in house

[6] = target: T3, vTopo; format: biochemical
[7] = target: T3, vTopo; format: biochemical; remark: listed apart in the source
[8] = target: T4, human topo IB enzyme (Homo sapiens, UniProt P11387); conditions: cited from earlier work
T4 sequence (P11387 1-765): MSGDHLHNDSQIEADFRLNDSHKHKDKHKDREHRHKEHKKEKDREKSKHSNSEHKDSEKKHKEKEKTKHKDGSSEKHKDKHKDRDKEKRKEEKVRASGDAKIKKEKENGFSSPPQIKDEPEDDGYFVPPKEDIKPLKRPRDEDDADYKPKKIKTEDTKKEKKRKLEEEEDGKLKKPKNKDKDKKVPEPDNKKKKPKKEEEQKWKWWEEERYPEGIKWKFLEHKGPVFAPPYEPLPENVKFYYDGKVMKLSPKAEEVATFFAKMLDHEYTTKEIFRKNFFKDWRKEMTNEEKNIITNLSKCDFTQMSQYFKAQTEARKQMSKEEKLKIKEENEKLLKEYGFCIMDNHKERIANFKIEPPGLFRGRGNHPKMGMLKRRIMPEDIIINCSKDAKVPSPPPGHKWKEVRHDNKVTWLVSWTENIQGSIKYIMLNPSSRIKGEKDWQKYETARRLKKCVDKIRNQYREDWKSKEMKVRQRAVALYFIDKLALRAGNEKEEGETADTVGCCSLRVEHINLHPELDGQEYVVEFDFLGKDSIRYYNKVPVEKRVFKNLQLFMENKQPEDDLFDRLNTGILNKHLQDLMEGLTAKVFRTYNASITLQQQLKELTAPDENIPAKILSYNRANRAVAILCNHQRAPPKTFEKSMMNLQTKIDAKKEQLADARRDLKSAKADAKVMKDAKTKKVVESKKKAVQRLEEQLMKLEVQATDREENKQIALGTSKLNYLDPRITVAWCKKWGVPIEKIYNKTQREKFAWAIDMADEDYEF

[9] = target: T3, vTopo; conditions: inhibition of vTopo; cited from earlier work
[10] = read-out: % Inhibition (RNAse HTS)
[11] = read-out: % Inhibition (plasmid SC release assay)

CC[C@@]1(O)C(=O)OCc2c1cc1n(c2=O)Cc2cc3ccccc3nc2-1 [NSC 100880]
% Inhibition (RNAse HTS) ([1]; 100 µM): Partial @100 μM

CCCCCC(O)C1C(=O)OC(C)O/C=C/C=C/C=CC=C/C=C(/C)C(O)CC(O)CC(O)CC(O)CC(O)CC(O)CC1O (stereo not shown) [NSC 3364]
inhibition at 100 µM [1, 10]: 100%

C[C@]12CCC(=O)C=C1CCC1[C@@H]3CC[C@H](C(=O)OS(=O)(=O)c4ccc(Br)cc4)C3CC[C@@H]12 (stereo partly shown) [NSC 88915]
inhibition at 0.5 µM [1, 10]: 100%
Selectivity [2]: 833
inhibition at 5 µM [2, 11]: 50%
inhibition at 0.006 µM [3, 11]: 50%

CNCSC(C)c1ccc(O)c(O)c1 (stereo not shown) [NSC 39215]
remaining activity at 100 µM [1]: 27%

Nc1ncnc2nc[nH]c12.Nc1ncnc2nc[nH]c12.[Cl][Pt]([Cl])([Cl])[Cl] [NSC 177395]
% Inhibition (RNAse HTS) ([1]; 100 µM): 100% @

Cc1c/c(=N\c2ccc3c(c2)c(N)cc(C)[n+]3C)nc(N)n1C [NSC 48223]
inhibition at 100 µM [1, 10]: 100%

CC(C)(C)C(=O)C(C(c1ccccc1)N1CCOCC1)N1CCOCC1 (stereo not shown) [NSC 33571]
inhibition at 100 µM [1, 10]: 100%

CN1CCN(c2ccc3[nH]c(-c4ccc5[nH]c(-c6ccc(O)cc6)nc5c4)nc3c2)CC1 [NSC 322921]
inhibition at 100 µM [1, 10]: 100%

O=C(O)C(O)(c1ccc(-c2ccccc2)cc1)c1ccc(-c2ccccc2)cc1 [NSC 28086]
inhibition at 1 µM [1, 10]: 100%
inhibition at 5 µM [3, 11]: 100%

CC(=O)c1ccccc1C(=O)c1ccc(C(=O)O)c(C(=O)O)c1 [NSC 28620]
inhibition at 1 µM [1, 10]: 100%
inhibition at 5 µM [3, 11]: 100%

O=C(O)c1cnc2c(ccc3ncc(C(=O)O)c(O)c32)c1O [NSC 1288884]
% Inhibition (RNAse HTS) ([1]; 100 µM): Partial @100 μM

Cc1ccc2nc(-c3ccc(NC(=O)c4ccc(N)cc4)c(S(=O)(=O)O)c3)sc2c1 [NSC 26699]
inhibition at 100 µM [1, 10]: 100%

O=C(O)C1C(C(=O)Nc2ccc3c(c2)Cc2ccccc2-3)C2(Cl)C(Cl)=C(Cl)C1(Cl)C2(Cl)Cl (stereo not shown) [NSC 73101]
inhibition at 100 µM [1, 10]: 100%

COP(OCc1ccccc1)Oc1cccc2c1C(=O)c1cn3c(c1C2=O)C(C)c1ccccc1C3 (stereo not shown) [NSC 611615]
inhibition at 100 µM [1, 10]: 100%

CCC(=C(C)C)c1ccc(Oc2cccc(C(=O)O)c2)cc1 [NSC 7962]
remaining activity at 100 µM [1]: 33%

CCC(O)[NH+]1CC[NH+](C(O)CC)CC1.[Cl][Pt-2]([Cl])([Cl])([Cl])([Cl])[Cl] (stereo not shown) [NSC 295558]
% Inhibition (RNAse HTS) ([1]; 100 µM): 100% @

Nc1ccc(S(=O)(=O)c2ccc(NCN3C(=O)NC(=O)C(=O)C3=O)cc2)cc1 [NSC 34238]
inhibition at 100 µM [1, 10]: 100%

COc1ccc2c(=O)cc(-c3ccncc3)oc2c1OC [NSC 54646]
inhibition at 10 µM [1, 10]: 100%

O=C1C=C/C(=N/c2cccc3c(/N=C4/C=CC(=O)O4)cccc23)O1 [NSC 69575]
inhibition at 100 µM [1, 10]: 100%

COc1ccc(/C=N/c2c(O)ccc3ccccc23)cc1OC [NSC 17061]
% Inhibition (RNAse HTS) ([1]; 100 µM): Partial @100 μM

CC(CCC(=O)O)(c1cc(Br)c(O)c(Br)c1)c1cc(Br)c(O)c(Br)c1 [NSC 21588]
inhibition at 1.2 µM [1, 10]: 100%
inhibition at 5 µM [3, 11]: 100%

Cc1cc(Cl)nc2ccc(Cc3ccc4nc(Cl)cc(C)c4c3)cc12 [NSC 109451]
% Inhibition (RNAse HTS) ([1]; 100 µM): Partial @100 μM

O=C(O)c1cc2c(cc1S(=O)(=O)O)C1C(C3C2C2(Cl)C(Cl)=C(Cl)C3(Cl)C2(Cl)Cl)C2(Cl)C(Cl)=C(Cl)C1(Cl)C2(Cl)Cl (stereo not shown) [NSC 270718]
% Inhibition (RNAse HTS) ([1]; 10 µM): 100% @

N#C/C(=C\Nc1ccccn1)C(=O)c1ccco1 [NSC 379552]
remaining activity at 100 µM [1]: 7%

O=C(O)CCc1ccc(-c2ccccc2)[nH]1 [NSC 75600]
remaining activity at 100 µM [1]: 35%

O=C(O)CSCc1ccc(N=C=S)c(O)c1 [NSC 403376]
remaining activity at 100 µM [1]: 45%

O=[N+]([O-])/C=C/c1cc2ccccc2[nH]1 [NSC 150982]
remaining activity at 100 µM [1]: 54%

Oc1c(Cl)cc(C(c2cc(Cl)c(O)c(Cl)c2)C(c2cc(Cl)c(O)c(Cl)c2)c2cc(Cl)c(O)c(Cl)c2)cc1Cl [NSC 172033]
inhibition at 10 µM [1, 10]: 100%

COc1ccc2c3c([nH]c2c1)C1CC2C(CC(O)C(OC)C2C(=O)O)CN1CC3 (stereo not shown) [NSC 81463]
% Inhibition (RNAse HTS) ([1]; 100 µM): Partial @100 μM

O=C1CNCCCN2CCN(CCCNCC(=O)Nc3ccc(cc3)S(=O)(=O)c3ccc(cc3)NC(=O)CNCCCN3CCN(CCCNCC(=O)Nc4ccc(cc4)S(=O)(=O)c4ccc(cc4)N1)CC3)CC2 [NSC 95609]
inhibition at 100 µM [1, 10]: 100%

Cc1ccc(NC(=[OH+])c2cc3ccccc3cc2O)c(C)c1.Cc1ccc(NC(=[OH+])c2cc3ccccc3cc2O)c(C)c1.[Ni] [NSC 306698]
% Inhibition (RNAse HTS) ([1]; 100 µM): 100% @100 μM

Nc1c(OCC(=O)O)ccc2cc(S(=O)(=O)O)ccc12 [NSC 16163]
inhibition at 100 µM [1, 10]: 100%

O=C(O)C(=O)Cc1ccc2c(c1)OCO2 [NSC 112983]
anisotropy of Y274F-DNA complex in presence of compound [4]: unchanged
decrease of percent covalently bound DNA ([5]; 100 μM compound): 50%
decrease in the amount of covalent complex ([5]; 100 μM, vs control without compound): 2 fold
IC50 [1]: ~2000 nM
Ki [1]: 1600 ± 600 nM
remaining activity at 100 µM [1]: 9%
inhibition at 8 µM ([1]; read-out: inhibition of the ribonuclease reaction rate): ~75%
% covalent complex remaining [6]: 7%
decrease of fraction covalent complex remaining [6]: 50%
effect on the single-turnover cleavage rate ([7]; 8 μM): no effect
cleavage rate kcl ([7]; in the presence of 8 μM 112983 (2.3±0.06 in its absence)): 1.8 ± 0.05 s⁻¹
inhibition of the hTopo supercoil relaxation reaction [2]: no detectable inhibition
IC50 [3]: ~7 µM
inhibition of the supercoil relaxation activity of vTopo [3]: complete inhibition

CN(C)CS/C(N)=N/[C@H](O)C(Cl)(Cl)Cl [NSC 14555]
% vTopo activity [1]: 28%
inhibition of the relaxation reaction [3]: complete inhibition

CC(CCC(=O)O)C1CCC2C3CCC4CC(O)CCC4(C)C3CCC12C (stereo not shown) [NSC 683770]
inhibition at 100 µM [1, 10]: 100%

O=C(O)c1cc(-c2ccc(-c3ccc(-c4cc(C(=O)O)c5cc(Cl)ccc5n4)cc3)cc2)nc2ccc(Cl)cc12 [NSC 210627]
inhibition at 100 µM [1, 10]: 100%

COc1cc(C)cc2c(-c3c(O)cc(O)c4c3CC(C)NC4C)cc(-c3cc(-c4c(O)cc(O)c5c4CC(C)NC5C)c4cc(C)cc(OC)c4c3O)c(O)c12 (stereo not shown) [NSC 661755]
inhibition at 10 µM [1, 10]: 100%

Cc1cc(N)c2cc(NC(=O)Nc3ccc4nc(C)cc(N)c4c3)ccc2n1 [NSC 12155]
inhibition at 2.5 µM [1, 10]: 100%
inhibition at 0.5 µM [3, 11]: 40%

Cc1cc(O)c(-c2cc(O)c(C)cc2O)cc1O [NSC 2805]
remaining activity at 100 µM [1]: 30%

CC1CCC2(C(=O)O)CCC3(C)C(=CCC4C5(C)CC(O)C(O)C(C)(CO)C5C(O)CC43C)C2C1C (stereo not shown) [NSC 88135]
inhibition at 100 µM [1, 10]: 100%

CO[C@@H]1[C@@H](OC(N)=O)[C@@H](O)[C@H](Oc2ccc3c(O)c(NC(=O)c4ccc(O)c(CC=C(C)C)c4)c(=O)oc3c2C)OC1(C)C [novobiocin]
inhibition of human topo IB enzyme [8]: no inhibition
Ki [9]: 325 µM
inhibition of the relaxation reaction [3]: complete inhibition

CN(C)Cc1cc(O)c(O)c(CN(C)C)c1 [NSC 39225]
remaining activity at 100 µM [1]: 52%

Nc1c(S(N)(=O)=O)cc(S(N)(=O)=O)cc1S(N)(=O)=O [NSC 25857]
inhibition at 100 µM [1, 10]: 100%

COc1ccc2nc3cc(Cl)ccc3c(Nc3ccc(O)c(CN4CCN(C)CC4)c3)c2c1 [NSC 130813]
inhibition at 100 µM [1, 10]: 100%

C/C(=N\CC(=O)O)c1ccccc1 [NSC 125214]
remaining activity at 100 µM [1]: 53%

Oc1cc(O)c2c(c1)OC(c1ccc(O)c(O)c1)C(O)C2c1c(O)cc(O)c2c1OC(c1ccc(O)c(O)c1)C(O)C2 (stereo not shown) [NSC 143099]
inhibition at 1 µM [1, 10]: 100%
inhibition at 5 µM [3, 11]: 100%

Cc1cc(N)c2cc(OCCOc3ccc4nc(C)cc(N)c4c3)ccc2n1 [NSC 22907]
inhibition at 100 µM [1, 10]: 100%

Oc1cc(O)c2c(c1)OC(c1ccc(O)c(O)c1)C(OC1(c3cc(O)c(O)c(O)c3)Oc3cc(O)cc(O)c3C(O)C1O)C2 (stereo not shown) [NSC 143101]
inhibition at 0.5 µM [1, 10]: 100%
inhibition at 0.5 µM [3, 11]: 70%

Cc1ccc(S(=O)(=O)C2C(C3COC(C)(C)O3)OC3OC(C)(C)OC32)cc1 (stereo not shown) [NSC 14163]
inhibition at 2.5 µM [1, 10]: 100%
Selectivity [2]: >3333
inhibition at 20 µM [2, 11]: 0%
inhibition at 5 µM [3, 11]: 50%

C/C(=N\C1CCCCC1)c1ccccc1O [NSC 120917]
remaining activity at 100 µM [1]: 28%
inhibition of the relaxation reaction [3]: complete inhibition

O=C(O)Cc1c(O)ccc2ccccc12 [NSC 163339]
remaining activity at 100 µM [1]: 48%

O=C(O)c1ccc2ccc(-c3cccc4cccc(C(=O)O)c34)cc2c1 [NSC 7810]
inhibition at 2.5 µM [1, 10]: 100%
inhibition at 10 µM [3, 11]: 100%
